Laboratory results published in BindingDB's records for doi:10.1016/s0028-3908(97)00038-5 (Smithkline Beecham Pharmaceuticals, 1997).

Key:
D(3) dopamine receptor = D(3) dopamine receptor (Cricetulus griseus, UniProt A0A3Q0CXS4)
[1] = target: 5-hydroxytryptamine receptor 7 (Homo sapiens, UniProt P34969)
[2] = target: T1, Alpha-1B adrenergic receptor (Mesocricetus auratus, UniProt P18841)
T1 sequence (P18841 whole entry): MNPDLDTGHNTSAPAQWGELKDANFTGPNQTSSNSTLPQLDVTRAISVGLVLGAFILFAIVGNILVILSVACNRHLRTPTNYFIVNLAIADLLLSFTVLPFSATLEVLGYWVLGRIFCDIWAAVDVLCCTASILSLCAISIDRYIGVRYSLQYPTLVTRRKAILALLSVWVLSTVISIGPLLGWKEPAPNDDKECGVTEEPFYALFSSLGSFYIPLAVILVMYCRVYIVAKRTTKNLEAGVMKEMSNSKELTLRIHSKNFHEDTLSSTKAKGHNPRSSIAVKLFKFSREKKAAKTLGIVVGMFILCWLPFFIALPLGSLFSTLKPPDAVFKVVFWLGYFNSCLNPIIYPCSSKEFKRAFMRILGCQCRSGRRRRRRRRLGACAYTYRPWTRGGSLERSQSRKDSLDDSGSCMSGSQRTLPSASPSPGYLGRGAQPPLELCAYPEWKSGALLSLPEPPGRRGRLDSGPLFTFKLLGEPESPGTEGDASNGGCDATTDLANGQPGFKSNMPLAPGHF

[3] = target: Tyrosine-protein kinase Fyn (Homo sapiens, UniProt P06241)
D(2) dopamine receptor = D(2) dopamine receptor (Mesocricetus auratus, UniProt A0A1U7QAF5)
[4] = target: 5-hydroxytryptamine receptor 1B (Cricetulus griseus, UniProt P46636)
[5] = target: 5-hydroxytryptamine receptor 4 (Sus scrofa, UniProt Q29006)
Chain of 5-hydroxytryptamine receptor 4 (Q29006 whole entry): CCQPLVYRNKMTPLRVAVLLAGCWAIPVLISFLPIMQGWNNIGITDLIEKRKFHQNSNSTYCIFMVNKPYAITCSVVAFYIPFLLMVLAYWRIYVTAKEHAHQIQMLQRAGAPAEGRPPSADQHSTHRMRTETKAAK

Chain of 5-hydroxytryptamine receptor 1B (P46636 whole entry): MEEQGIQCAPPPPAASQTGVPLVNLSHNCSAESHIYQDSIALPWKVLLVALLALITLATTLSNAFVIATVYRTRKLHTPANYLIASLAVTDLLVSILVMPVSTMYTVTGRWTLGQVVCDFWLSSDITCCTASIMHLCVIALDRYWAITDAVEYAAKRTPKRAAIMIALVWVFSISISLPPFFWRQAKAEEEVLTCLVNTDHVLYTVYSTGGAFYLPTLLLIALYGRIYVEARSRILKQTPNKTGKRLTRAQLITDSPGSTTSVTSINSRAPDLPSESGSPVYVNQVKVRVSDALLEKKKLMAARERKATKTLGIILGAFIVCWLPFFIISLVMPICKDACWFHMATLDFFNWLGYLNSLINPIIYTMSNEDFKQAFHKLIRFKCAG
Chain of D(3) dopamine receptor (A0A3Q0CXS4 whole entry): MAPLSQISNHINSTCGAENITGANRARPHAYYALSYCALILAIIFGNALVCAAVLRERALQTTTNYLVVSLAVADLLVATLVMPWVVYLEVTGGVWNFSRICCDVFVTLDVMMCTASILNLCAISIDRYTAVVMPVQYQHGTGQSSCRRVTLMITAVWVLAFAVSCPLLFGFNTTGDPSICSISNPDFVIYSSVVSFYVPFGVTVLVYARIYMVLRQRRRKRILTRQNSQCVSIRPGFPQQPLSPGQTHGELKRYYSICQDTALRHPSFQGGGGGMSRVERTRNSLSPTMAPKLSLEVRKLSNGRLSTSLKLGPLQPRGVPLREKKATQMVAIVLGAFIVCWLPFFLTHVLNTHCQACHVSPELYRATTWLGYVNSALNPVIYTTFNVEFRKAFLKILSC
Chain of Tyrosine-protein kinase Fyn (P06241 whole entry): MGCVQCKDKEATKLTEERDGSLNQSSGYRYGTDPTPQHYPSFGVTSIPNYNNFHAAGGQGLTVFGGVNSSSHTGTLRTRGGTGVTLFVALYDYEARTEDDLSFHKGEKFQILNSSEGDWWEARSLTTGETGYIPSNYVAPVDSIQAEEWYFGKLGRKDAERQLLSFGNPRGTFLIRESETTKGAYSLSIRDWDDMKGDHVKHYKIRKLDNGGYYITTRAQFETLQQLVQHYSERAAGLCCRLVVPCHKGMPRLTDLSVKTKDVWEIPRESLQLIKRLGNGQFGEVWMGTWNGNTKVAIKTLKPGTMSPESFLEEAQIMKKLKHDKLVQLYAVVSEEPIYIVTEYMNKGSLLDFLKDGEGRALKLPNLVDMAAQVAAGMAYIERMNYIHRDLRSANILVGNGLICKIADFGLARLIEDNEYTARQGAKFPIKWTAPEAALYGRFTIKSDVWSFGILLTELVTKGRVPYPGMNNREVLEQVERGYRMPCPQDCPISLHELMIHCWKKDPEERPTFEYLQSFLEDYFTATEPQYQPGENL
Chain of 5-hydroxytryptamine receptor 7 (P34969 whole entry): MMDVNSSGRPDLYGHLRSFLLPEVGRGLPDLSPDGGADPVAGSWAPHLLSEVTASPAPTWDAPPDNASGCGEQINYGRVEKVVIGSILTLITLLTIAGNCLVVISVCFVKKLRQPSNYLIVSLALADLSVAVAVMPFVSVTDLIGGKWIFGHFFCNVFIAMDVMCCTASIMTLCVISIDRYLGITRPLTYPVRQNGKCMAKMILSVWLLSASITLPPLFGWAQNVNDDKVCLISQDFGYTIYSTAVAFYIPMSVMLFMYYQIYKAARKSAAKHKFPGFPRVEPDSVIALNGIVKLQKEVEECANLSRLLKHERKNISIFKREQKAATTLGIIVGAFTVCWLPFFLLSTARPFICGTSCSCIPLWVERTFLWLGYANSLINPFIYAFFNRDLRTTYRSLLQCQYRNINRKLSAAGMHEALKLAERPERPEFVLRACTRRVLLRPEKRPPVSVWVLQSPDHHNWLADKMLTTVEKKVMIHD
Chain of D(2) dopamine receptor (A0A1U7QAF5 whole entry): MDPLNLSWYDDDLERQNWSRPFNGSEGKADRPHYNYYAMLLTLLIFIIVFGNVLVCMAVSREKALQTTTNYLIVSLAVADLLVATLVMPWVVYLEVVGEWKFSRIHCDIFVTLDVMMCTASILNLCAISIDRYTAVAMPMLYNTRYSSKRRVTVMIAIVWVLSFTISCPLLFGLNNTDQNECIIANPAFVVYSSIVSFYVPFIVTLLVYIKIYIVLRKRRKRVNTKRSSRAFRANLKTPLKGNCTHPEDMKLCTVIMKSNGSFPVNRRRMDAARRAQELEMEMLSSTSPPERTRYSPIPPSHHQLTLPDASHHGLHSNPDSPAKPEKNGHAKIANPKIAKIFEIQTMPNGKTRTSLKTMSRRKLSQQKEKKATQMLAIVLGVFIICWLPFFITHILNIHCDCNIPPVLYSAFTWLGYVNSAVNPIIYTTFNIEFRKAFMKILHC

Ki (D(3) dopamine receptor): 631 nM
Ki [1]: 794 nM
Ki [2]: > 10000 nM
Ki [3]: 1000 nM
Ki (D(2) dopamine receptor): 631 nM
Ki [4]: 398 nM
Ki [5]: 3160 nM
Compound: Cc1cc2c(cc1Cl)N(C(=O)Nc1ccc(Oc3cccnc3C)nc1)CC2 [CAS_181632-25-7]
